From ChEMBL document CHEMBL1201862, “PubChem BioAssay data set” (2004)
Active and inactive are the calls of the source.

How the values were obtained:
cells [1] = format: functional, cell-based
[2] = molecular target: T1, Nuclear receptor subfamily 0 group B member 1 (Homo sapiens, UniProt P51843); format: functional, cell-based;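 further: HEK293T cells transfected with SF-1 and DAX-1 plus StAR promoter luciferase reporter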
T1 sequence (P51843 whole entry): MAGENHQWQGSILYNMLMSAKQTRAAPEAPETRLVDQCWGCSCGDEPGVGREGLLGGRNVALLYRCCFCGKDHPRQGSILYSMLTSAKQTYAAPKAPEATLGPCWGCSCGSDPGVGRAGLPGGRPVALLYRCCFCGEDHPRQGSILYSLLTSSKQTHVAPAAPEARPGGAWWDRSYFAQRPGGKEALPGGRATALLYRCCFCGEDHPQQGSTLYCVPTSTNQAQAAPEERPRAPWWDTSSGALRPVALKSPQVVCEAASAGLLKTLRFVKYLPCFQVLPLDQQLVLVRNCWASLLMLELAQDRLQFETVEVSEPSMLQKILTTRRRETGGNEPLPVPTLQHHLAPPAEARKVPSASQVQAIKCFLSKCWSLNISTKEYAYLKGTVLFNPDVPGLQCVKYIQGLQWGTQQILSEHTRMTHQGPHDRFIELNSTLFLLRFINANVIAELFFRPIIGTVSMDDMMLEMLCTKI

[3] = NIH3T3 cell viability loss – ATP luminescence, mouse fibroblasts, counter-screen, dose response (AID 2010); format: functional, cell-based;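 further: cells exposed to compound for about 90 hours before reading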
[4] = viability loss of HPDE-C7K cells – cell-based, fluorescence, HTS, primary screen (AID 431); format: functional; conditions: Homo sapiens
[5] = Trypanosoma cruzi growth suppression in host cells – NIH3T3 host cells, beta-gal luminescence, confirmation (AID 2044); format: functional, cell-based;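 further: intracellular parasites grown in NIH/3T3 mouse fibroblasts as host cells; luminescent beta-galactosidase reporter signal from transgenic T. cruzi replicating inside host cells; inhibitors lower the luminescence signal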
[6] = HPDE-C7 pancreatic duct cell viability loss – fluorescence, HTS (AID 430); format: functional, cell-based; conditions: Homo sapiens
[7] = molecular target: T2, Fructose-bisphosphate aldolase (Mycobacterium tuberculosis, UniProt P9WQA3); test: Fluorescence-based biochemical high throughput dose response assay for inhibitors of the fructose-bisphosphate aldolase (FBA) of M. tuberculosis.; format: functional
T2 sequence (P9WQA3 whole entry): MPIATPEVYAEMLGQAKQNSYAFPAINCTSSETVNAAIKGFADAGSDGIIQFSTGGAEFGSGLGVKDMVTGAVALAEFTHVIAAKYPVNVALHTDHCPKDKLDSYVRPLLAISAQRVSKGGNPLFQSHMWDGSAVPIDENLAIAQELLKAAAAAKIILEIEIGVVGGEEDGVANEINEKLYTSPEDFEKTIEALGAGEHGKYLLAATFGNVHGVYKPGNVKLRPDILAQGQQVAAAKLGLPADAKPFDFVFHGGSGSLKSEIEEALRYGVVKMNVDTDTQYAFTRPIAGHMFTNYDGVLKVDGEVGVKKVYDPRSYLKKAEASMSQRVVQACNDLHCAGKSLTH

[8] = HGIII-sPLA2 enzyme inhibition potency – biochemical, QFRET, IC50, dose response (AID 743457);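 further: green fluorescence rise as the enzyme cleaves BODIPY PC-A2 in liposomes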
[9] = luciferase reporter signal suppression in cells – H4 neuroglioma cells, luminescence, dose response (AID 1990); format: functional, cell-based
[10] = Luminescence Cell-Based Dose Response HTS to Identify Inhibitors of 5'UTR Stem-Loop Driven Prion Protein mRNA Translation in H4 Neuroglioblastoma Cells. [Related pubchem assays: 1827 (Project Summary), 1813 (Primary HTS)]; format: functional
[11] = alpha-synuclein stem-loop luciferase translation blockers – H4 neuroglioma cells, luminescence, confirmation (AID 1988); format: functional, cell-based
Estrogen receptor beta = Estrogen receptor beta (Homo sapiens, UniProt Q92731);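 further: recombinant ER-beta bound to coactivator SRC1 peptide in presence of estradiol agonist; inhibitors block coactivator peptide binding and lower the FRET signal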
[12] = blockers of HIV-1 envelope-mediated cell-cell fusion – cherry-pick, dose response (AID 652057); format: functional, cell-based
[13] = off-target signal loss in HeLa-CEM21 co-culture – HeLa F-luc CTL cells, cherry-picked, counter-screen for HIV-1 Env fusion inhibitor project, dose response (AID 652040); format: functional, cell-based;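 further: potency for signal decrease marking cytotoxic or nonspecific inhibition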
[14] = HIV-1 AD8 envelope cell-cell fusion blockers – cherry-pick, dose response (AID 652062); format: functional, cell-based;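 further: luciferase signal from cell-cell fusion driven by HIV-1 clade B AD8 Env; potency is for inhibitors of fusion seen as a drop in luminescence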
[15] = blockers of HIV-1 ZM109 envelope-driven cell-cell fusion – HeLa effector, CEM target cells, luciferase, cherry-pick, dose response (AID 652058); format: functional, cell-based;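 further: luciferase signal from HIV-1 Env mediated cell-cell fusion of effector and target cells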
[16] = viability loss in HepG2 hepatoma cells – cell-based, ATP luminescence, cherry-pick, activator set 2, cytotoxicity control, dose response (AID 1053143); format: functional
[17] = molecular target: T3, Heat shock factor protein 1 (Mus musculus, UniProt P38532); test: decrease of HSF1-responsive luciferase luminescence – cell-based, NIH3T3, dose retest, confirmation (AID 2382); format: functional;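 further: NIH3T3 fibroblasts with HSF1-driven luciferase reporter stressed by proteasome inhibitor MG132; luminescence from HSF1-driven luciferase expression after 8 hours of MG132 stress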
T3 sequence (P38532 whole entry): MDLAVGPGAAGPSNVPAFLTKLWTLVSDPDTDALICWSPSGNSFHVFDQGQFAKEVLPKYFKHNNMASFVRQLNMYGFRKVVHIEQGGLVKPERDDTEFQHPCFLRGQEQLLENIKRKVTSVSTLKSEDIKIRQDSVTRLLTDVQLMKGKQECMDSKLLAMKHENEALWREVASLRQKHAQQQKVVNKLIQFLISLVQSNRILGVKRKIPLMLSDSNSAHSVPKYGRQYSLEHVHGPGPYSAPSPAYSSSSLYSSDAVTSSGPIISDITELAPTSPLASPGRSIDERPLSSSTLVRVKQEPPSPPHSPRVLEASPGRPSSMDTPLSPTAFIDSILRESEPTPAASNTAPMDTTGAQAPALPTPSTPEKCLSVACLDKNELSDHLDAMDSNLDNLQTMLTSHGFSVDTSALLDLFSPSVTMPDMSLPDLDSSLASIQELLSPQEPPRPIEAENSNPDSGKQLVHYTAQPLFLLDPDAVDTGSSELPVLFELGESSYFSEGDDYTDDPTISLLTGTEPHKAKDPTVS

Streptococcus = test: GAS UMAA2166 growth inhibition – luminescence, BacTiterGlo, counter-screen for streptokinase expression inhibitor project, dose response (AID 1915); format: functional, organism-based;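 further: potency for reduction of bacterial viability or growth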
[18] = tested on: Streptococcus sp. 'group A'; test: Streptococcus pyogenes SK(-)GAS viability under kanamycin – luminescence, BacTiterGlo, confirmation, counter-screen for streptokinase expression inhibitor project, dose response (AID 1900); format: functional, organism-based
[19] = molecular target: T4, Trace amine-associated receptor 1 (Homo sapiens, UniProt Q96RJ0); test: Fluorescence-based cell-based high throughput dose response assay to identify agonists of the human trace amine associated receptor 1 (TAAR1).; format: functional
T4 sequence (Q96RJ0 whole entry): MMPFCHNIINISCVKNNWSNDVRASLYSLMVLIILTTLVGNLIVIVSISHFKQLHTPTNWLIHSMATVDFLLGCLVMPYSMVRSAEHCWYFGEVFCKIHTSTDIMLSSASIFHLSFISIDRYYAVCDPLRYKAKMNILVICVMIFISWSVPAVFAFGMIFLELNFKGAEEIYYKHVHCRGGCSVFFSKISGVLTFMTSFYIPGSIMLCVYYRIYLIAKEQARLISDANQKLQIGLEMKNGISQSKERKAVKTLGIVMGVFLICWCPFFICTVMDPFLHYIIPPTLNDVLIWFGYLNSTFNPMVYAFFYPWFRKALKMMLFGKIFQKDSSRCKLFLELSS

cells [20] = format: functional, cell-based; remark: listed apart in the source
[21] = molecular target: T4, Trace amine-associated receptor 1; test: Counterscreen for agonists of the human trace amine associated receptor 1 (hTAAR1): Fluorescence-based cell-based high throughput dose response assay to identify hTAAR1 agonist that also desensitize TAAR1 receptor response.; format: functional
cells [22] = format: functional, cell-based; remark: listed apart in the source
cells [23] = test: cells
Major prion protein = Major prion protein (Homo sapiens, UniProt P04156); format: functional, cell-based
Beta-galactosidase = Beta-galactosidase (Escherichia coli, UniProt Q8VNN2); test: Dose response counterscreen for EBI2 assay utilizing the enzyme, b-galactosidase.; format: functional

CN(C)CCN(C(=O)c1ccc2c(c1)CCCC2)c1nc2cc3c(cc2s1)OCCO3
IC50 (cells [1]): > 67.5 µM (inactive)
IC50 [2]: > 67.5 µM (inactive)

c1ccc(N2CCN(c3nc(NCc4ccco4)c4ccccc4n3)CC2)cc1
EC50 [3]: > 60 µM (not active)
EC50 [4]: 10.8 µM (active)
EC50 [5]: 2.3 µM (active)
EC50 [6]: 11 µM (active)

CCOc1ccc2oc(C(=O)OCC(=O)NC3CCCC3)c(C)c2c1
IC50 [7]: 2.59 µM (active)

CC1=CC(C)(C)N=C(S)N1c1cccc2ccccc12
IC50 [8]: > 122 µM (inactive)

Cc1nn(C)c(C)c1CN(C)C(=O)c1cnn2c1NC(c1ccccc1)CC2C(F)(F)F (configuration not stated)
EC50 [9]: > 120 µM (not active)
EC50 [10]: 17.9 µM (active)
EC50 [11]: 20 µM (active)
IC50 (Estrogen receptor beta): > 50 µM (not active)

CC[C@@]12C(=O)N(c3cccc(Br)c3)C(=O)N1[C@H](c1ccc(OC)cc1)[C@@H]1C(=O)N(C(C)(C)C)C(=O)[C@@H]12
AC50 [12]: 0.326 µM (active)
AC50 [13]: 0.509 µM (active)
AC50 [14]: 0.627 µM (active)
AC50 [15]: 0.581 µM (active)

C(=C\c1ccco1)/c1nc2ccccc2[nH]1
AC50 [16]: 26 µM (active)

COc1ccc(C(=O)NC(=S)NNC(=O)c2ccco2)cc1
EC50 [17]: > 195 µM (not active)
EC50 (Streptococcus): 17.3 µM (active)
IC50 [8]: > 122 µM (inactive)
EC50 [18]: 6.65 µM (active)

Cc1cc(C)n2nc(C(=O)Nc3ccc4c(c3)OCCO4)nc2n1
IC50 (cells [1]): > 67.5 µM (inactive)
IC50 [2]: > 67.5 µM (inactive)

c1ccc(CN(CC2=NCCN2)c2ccccc2)cc1 [ANTAZOLINE PHOSPHATE]
EC50 [19]: > 9.97 µM (active)
EC50 (cells [20]): > 29.9 µM (inactive)
IC50 [21]: > 29.9 µM (inactive)
IC50 (cells [22]): > 29.9 µM (inactive)

N#Cc1nc(-c2cccs2)oc1N1CCN(Cc2ccccc2)CC1
IC50 [7]: 0.849 µM (active)

CC(=O)N1c2ccc(S(=O)(=O)N3CCCC(C(=O)Nc4cc(C)cc(C)c4)C3)cc2CC1C (configuration not stated)
IC50 (cells [23]): > 138 µM (inactive)
IC50 (Major prion protein): 10.4 µM (inactive)

Cc1ccsc1C1Nc2ccc3ncccc3c2C2=C1C(=O)CC(C)(C)C2 (configuration not stated)
IC50 (Beta-galactosidase): > 80 µM (inactive)

CCOC(=O)c1cccc(NC(=O)c2cccs2)c1
IC50 (Estrogen receptor beta): > 50 µM (not active)
